The text below walks through data of patent US12187754B2, “LpxC inhibitors and uses thereof” (Blacksmith Medicines, Inc., priority 2021, dated 2025).

Where only a bound is given, the exact number is not on record here.

For orientation: solubility means the concentration that dissolves in the medium under given conditions. High values mean much dissolved substance, low ones little dissolved substance.

Data set [1] deals with K. pneumoniae BAA-1705. The data set can be described thus: Mouse urinary tract infection model, K. pneumoniae BAA-1705. Format: in vivo. The note with it: for Bladder Terminal Burden / Kidney Terminal Burden / Urine Terminal Burden: mice, 96 hours; for bacterial burden in urine relative to vehicle-treated controls and the ciprofloxacin control: except for the 30 mg/kg IV Compound A experiment. The procedure: (§1) Compound A and its prodrugs as disclosed herein were tested in an in vivo mouse model for Urinary Tract Infection. Briefly, mice were infected with E. coli UTI 89 to cause a UTI infection and were treated with compounds disclosed herein.
(§2) Five days prior to infection, C3H/HeNR female mice were preconditioned with drinking water containing 5% glucose. Mice were rendered unconscious using parenteral anaesthesia (ketamine/medetomidine) then 0.05 mL of a bacterial suspension of E. coli UTI 89 (1.2×10^9 CFU/mL (6.2×10^7 CFU/mouse) was administered transurethrally into the bladder to cause an ascending UTI infection.
[…]; […]; […]; […] for 3 days (six doses total). Ciprofloxacin was given as a control at 10 mg/kg/dose IV every 12 hours. Compound A was formulated in 10% DMSO, 5% Cremophor, 85% SFI; the remaining compounds used a sterile phosphate-buffered saline (PBS) formulation. Each group was comprised of five mice each.
(§3) Urine, bladder, and kidney were harvested at 24 h (pre-treatment group only) and 96 h post infection and quantitatively cultured.
The experiment was repeated using K. pneumoniae BAA-1705 (MDR; MIC90 strain). Table 5 and FIG. 2 summarize the results, showing the average terminal burden of K. pneumoniae BAA-1705 in urine, bladder, and kidney at the conclusion of the study (96 hours).

The test system of data set [2] is E. coli UTI 89. The data set can be described thus: Mouse urinary tract infection model, E. coli UTI 89. The format is in vivo. The note with it: for Bladder Terminal Burden / Kidney Terminal Burden / Urine Terminal Burden: mice, 96 h post infection; for bacterial burden in urine relative to vehicle-treated controls / bacterial burden in bladder relative to vehicle-treated controls / bacterial burden in kidney relative to vehicle-treated control / efficacy on bacterial burden in kidney: E. coli UTI 89, mice; for bacterial burden in bladder relative to vehicle-treated controls / bacterial burden in kidney relative to vehicle-treated control: IV administration; for efficacy on bacterial burden in kidney: PO administration. The procedure: as §1, §2
IV or PO treatment was started 24 h post infection with 3, 10, 15 mg/kg/dose IV Compound A; 3, 10, 15.30 mg/kg/dose IV Compound 1; 3, and 10 mg/kg/dose IV Compound 2; and 30 mg/kg/dose oral of either Compound 1 or 2 administered every 12 hours for 3 days (six doses total). Ciprofloxacin was given as a control at 10 mg/kg/dose IV every 12 hours. Compound A was formulated in 10% DMSO, 5% Cremophor, 85% SFI; the remaining compounds used a sterile phosphate-buffered saline (PBS) formulation. Each group was comprised of five mice each.
as §3

A short description of data set [3]: Pharmacokinetics in rats. The format is in vivo, Male Sprague-Dawley (SD) rats. The note with it: male, Sprague-Dawley, plasma, intravenous, oral; after 4 h, all routes and doses tested in rat; read-out: plasma concentration of prodrug Compound 1. How it is done:
(§4) Stock solutions of test compounds were prepared at 2.5 or 5.0 mg/mL in 10 mM PBS. Male Sprague-Dawley (SD) rats (n=3 per group) or beagle dogs (n=3 per group) were administered test compound by either IV or oral administration. For IV-administered compounds, a three hour infusion was used. For PO-administered compounds, a single bolus dose was used.
(§5) After initiation of IV dosing (or after PO bolus dosing), whole blood samples were collected at 1, 3, 3.5, 4, 6, 8, and 24 hour timepoints. All samples were collected into Plasma K2-EDTA collection tubes and processed to separate plasma from red blood cells.
(§6) Liquid chromatography-tandem mass spectrometry (LC-MS/MS) was used to analyze all plasma samples, with both the test compound and the active agent Compound A being quantified. The lower limit of quantitation (LLOQ) for both rats and dogs was 1 ng/mL.

Data set [4] can be described thus: Pharmacokinetics in dogs. Format: in vivo. The note with it: beagle, plasma, intravenous, oral; after 6 h, all routes and doses tested in dog; read-out: plasma concentration of prodrug Compound 1. The procedure:
as §4, §5, §6

Data set [5] is described as follows: Kinetic solubility. The format is physicochemical. How it is done: Solubility of the compounds was assessed in 10 mM phosphate-buffered saline (PBS) at pH 7 at final concentrations of 20, 40, and 50 mg/mL of test compound.
The nature of data set [6]: Thermal solubility. Format: physicochemical. The note with it: aqueous buffer, thermodynamic from solid; 100 mM potassium phosphate buffer pH 7.4, 24 h, 25° C. How it is done:
Solubility of the compounds was assessed in 100 mM potassium phosphate buffer at pH 7.4 after 24 hours at room temperature.
Accurately weighed K2HPO4 (2.79 g) and KH2PO4 (0.54 g) were dissolved in 90 mL of Milli-Q water and mixed well. Volume was made upto 200 mL with Milli-Q water and mixed well. The prepared phosphate buffer was stored at 2-8° C. and used within a month.
Approximately 30 mg of test compound was added to approximately 1 mL of the potassium phosphate buffer, pH 7.4. If the visual inspection indicated precipitation, no further compound is added. If the visual inspection indicated a clear solution, further increments of compound were added until the solution was no longer clear.
Test compounds and assay controls (caffeine) were further incubated for 24 h at 25° C. temperature on a thermomixer at a shaking speed of 1200 rpm. After incubation, the samples (200 μL) were transferred to a filtration plate to which a plate was attached at bottom for collecting the filtrate. The plate was centrifuged at 4000 rpm for 2 min and the filtrate was collected in the attached bottom plate. The filtrates were diluted using filtered buffer based on the initial amount of compound added. All samples were analysed by HPLC-UV method against 8 point calibration curve with concentrations ranging from 2.5 μg/mL to 1000 μg/mL.

Setting [7] is: 10 mg/kg/dose IV every 12 hours for 3 days.
[8] abbreviates: 20, 40, and 50 mg/mL in 10 mM PBS pH 7.
The mark [9] stands for this setting: 3 mg/kg/dose IV every 12 hours for 3 days.
The mark [10] stands for this setting: 15 mg/kg/dose IV every 12 hours for 3 days.
The mark [11] stands for this setting: 30 mg/kg/dose PO every 12 hours for 3 days.

For the compound `O=C(O)c1cn(C2CC2)c2cc(N3CCNCC3)c(F)cc2c1=O` [Ciprofloxacin, reference compound], in data set [1] (10 mg/kg/dose IV), the “Bladder Terminal Burden” value was 2.27 × 10^1 CFU/mL, the “Kidney Terminal Burden” value was 1.88 × 10^3 CFU/mL and the “Urine Terminal Burden” value is 1.78 × 10^2 CFU/mL. Moreover, in data set [1] (10 mg/kg/dose PO), the “Bladder Terminal Burden” value was 4.05 × 10^2 CFU/mL, the “Kidney Terminal Burden” value is listed as 2.59 × 10^4 CFU/mL and the “Urine Terminal Burden” value is 9.71 × 10^2 CFU/mL. Further, in data set [2] (setting [7]), the “Bladder Terminal Burden” value is reported as 2.85 × 10^5 CFU/mL, the “Kidney Terminal Burden” value is recorded as 1.88 × 10^2 CFU/mL and the “Urine Terminal Burden” value was 5.07 × 10^2 CFU/mL.

For `N#CC1CN(C[C@@H](Cc2nc[nH]c(=O)c2OP(=O)(O)O)c2ccc(C#Cc3ccc(CN4CCOCC4)cc3)cc2)C1` [Compound 1, (S)-4-(3-(3-cyanoazetidin-1-yl)-2-(4-((4-(morpholinomethyl)phenyl)ethynyl)phenyl)propyl)-6-oxo-1,6-dihydropyrimidin-5-yl dihydrogen phosphate], the concentration at 4 h in data set [3] is under 100 ng/mL. The concentration at 6 h in data set [4] was under 100 ng/mL. In addition, the “Bladder Terminal Burden” value in data set [1] (11.5 mg/kg/dose IV) is reported as “BLoD”; in data set [1] (35 mg/kg/dose IV), “BLoD”; in data set [1] (69.5 mg/kg/dose IV) it was 4.58 × 10^0 CFU/mL; in data set [1] (104.5 mg/kg/dose PO), “BLoD”; in data set [2] (setting [9]), 2.64 × 10^6 CFU/mL; in data set [2] (setting [7]), 5.05 × 10^5 CFU/mL. Further, the results for the “Bladder Terminal Burden” value in data set [2] (setting [10]) and in data set [2] (setting [11]) were 9.57 × 10^4 CFU/mL and 1.81 × 10^5 CFU/mL, respectively. The “Kidney Terminal Burden” value in data set [1] (11.5 mg/kg/dose IV) is 1.72 × 10^1 CFU/mL; in data set [1] (35 mg/kg/dose IV) it was “BLoD”; in data set [1] (69.5 mg/kg/dose IV), “BLoD”; in data set [1] (104.5 mg/kg/dose PO), “BLoD”; in data set [2] (setting [9]) it was 4.74 × 10^4 CFU/mL; in data set [2] (setting [7]), 5.24 × 10^2 CFU/mL. Further, the “Kidney Terminal Burden” value in data set [2] (setting [10]) is 1.28 × 10^2 CFU/mL; in data set [2] (setting [11]), 4.04 × 10^2 CFU/mL. Moreover, the “Urine Terminal Burden” value in data set [1] (11.5 mg/kg/dose IV) was 2.15 × 10^1 CFU/mL; in data set [1] (35 mg/kg/dose IV) it was “BLoD”; in data set [1] (69.5 mg/kg/dose IV), “BLoD”; in data set [1] (104.5 mg/kg/dose PO), 2.51 × 10^0 CFU/mL; in data set [2] (setting [9]) it was 2.93 × 10^5 CFU/mL; in data set [2] (setting [7]), 9.40 × 10^3 CFU/mL. The “Urine Terminal Burden” value is 3.59 × 10^3 CFU/mL in data set [2] (setting [10]) and 8.73 × 10^3 CFU/mL in data set [2] (setting [11]). Moreover, the “bacterial burden in kidney relative to vehicle-treated controls and the ciprofloxacin control” value in data set [1] (K. pneumoniae BAA-1705, mice) is given as “statistically significant reductions in bacterial burden in kidney”. In data set [1] (K. pneumoniae BAA-1705, mice, all routes of administration), the “bacterial loads in kidney” value is given as “below the limit of detection”. In data set [1] (K. pneumoniae BAA-1705, mice), the “bacterial burden in urine relative to vehicle-treated controls and the ciprofloxacin control” value is reported as “statistically significant reductions in bacterial burden in urine”. In addition, the “appearance after vortex mixing” value in data set [5] (setting [8]) is listed as “clear solutions”. Also, the solubility after storage result in data set [5] (20, 40, and 50 mg/mL in 10 mM PBS pH 7, storage at 4° C. for 20 hours) was “remained soluble”. The “bacterial burden in urine relative to vehicle-treated controls” value in data set [2] was “statistically significant reductions in bacterial burden in urine”. Also, in data set [2], the “bacterial burden in bladder relative to vehicle-treated controls” value was “reductions in bacterial burden in bladder”. Also, the “bacterial burden in kidney relative to vehicle-treated control” value in data set [2] is on record as “statistically significant reductions in bacterial burden in kidney”. Also, the “efficacy on bacterial burden in kidney” value in data set [2] is recorded as “efficacious”. In addition, the solubility at 24 h in data set [6] is at least 3000 µg/mL.

Take `N#CC1CN(C[C@@H](Cc2nc[nH]c(=O)c2OCOP(=O)(O)O)c2ccc(C#Cc3ccc(CN4CCOCC4)cc3)cc2)C1` [Compound 2, (S)-((4-(3-(3-cyanoazetidin-1-yl)-2-(4-((4-(morpholinomethyl)phenyl)ethynyl)phenyl)propyl)-6-oxo-1,6-dihydropyrimidin-5-yl)oxy)methyl dihydrogen phosphate]: in data set [1] (K. pneumoniae BAA-1705, mice), the “bacterial burden in kidney relative to vehicle-treated controls and the ciprofloxacin control” value is “statistically significant reductions in bacterial burden in kidney”; the “bacterial burden in urine relative to vehicle-treated controls and the ciprofloxacin control” value is on record as “statistically significant reductions in bacterial burden in urine”. Also, the “appearance after vortex mixing” value in data set [5] (setting [8]) is recorded as “milky suspensions”. The appearance after sonication entry in data set [5] (20, 40, and 50 mg/mL in 10 mM PBS, sonication in 40° C. water bath for 30 min) is reported as “no change in appearance”. Also, the “appearance after treatment with 1M HCL” value in data set [5] (20, 40, and 50 mg/mL, final pH of 4, 10 seconds of vortexing) was “Clear solutions”. In data set [5] (20, 40, and 50 mg/mL, final pH of 7, 10 seconds of vortexing), the “appearance after addition of 1M NaOH” value is given as “clear solutions”. Besides, in data set [2] (setting [9]), the “Bladder Terminal Burden” value is listed as 5.15 × 10^5 CFU/mL, the “Kidney Terminal Burden” value is reported as 2.52 × 10^3 CFU/mL and the “Urine Terminal Burden” value was 4.69 × 10^4 CFU/mL. In data set [2] (setting [7]), the “Bladder Terminal Burden” value is given as 1.17 × 10^6 CFU/mL, the “Kidney Terminal Burden” value was 9.67 × 10^2 CFU/mL and the “Urine Terminal Burden” value is recorded as 2.73 × 10^4 CFU/mL. Besides, in data set [2] (setting [11]), the “Bladder Terminal Burden” value was 2.82 × 10^5 CFU/mL, the “Kidney Terminal Burden” value is reported as 3.81 × 10^2 CFU/mL and the “Urine Terminal Burden” value is on record as 3.41 × 10^3 CFU/mL. Moreover, in data set [2], the “bacterial burden in urine relative to vehicle-treated controls” value is “statistically significant reductions in bacterial burden in urine”, the “bacterial burden in bladder relative to vehicle-treated controls” value was “reductions in bacterial burden in bladder”, the “bacterial burden in kidney relative to vehicle-treated control” value is listed as “statistically significant reductions in bacterial burden in kidney” and the “efficacy on bacterial burden in kidney” value was “efficacious”. For the same compound, the solubility at 24 h in data set [6] was at least 3000 µg/mL.
